Measured values: patent US8507509B2, “Saturated and insaturated bi- or tricyclic aryloxyacetamine derivatives and their use as fungicides” (Syngenta Crop Protection LLC, priority 2007, dated 2013)

What was measured:
[1] = system: Erysiphe graminis f.sp. tritici; assay: Erysiphe graminis f.sp. tritici (wheat powdery mildew), wheat leaf segment assay, preventive; format: in vivo; conditions: Blumeria graminis, foliar, 96 h; 200 ppm; wheat leaf segments; assessed four days after inoculation; read-out: control of fungal infection, Etysiphe graminis f.sp. tritici
[2] = system: Septoria tritici; assay: Septoria tritici (leaf blotch), liquid culture growth inhibition in nutrient broth; format: cell-based; conditions: Zymoseptoria tritici; 200 ppm; PDB broth, 24 C; inhibition of growth determined photometrically after 72 hrs; read-out: control of fungal infection, Septoria tritici
[3] = system: Puccinia recondita f.sp. tritici; assay: Puccinia recondita f.sp. tritici (wheat brown rust), wheat leaf segment assay, preventive; format: in vivo; conditions: foliar, 216 h, 200 ppm, wheat leaf segments, assessed nine days after inoculation, read-out: control of fungal infection, Puccinia recondite f.sp. tritici
[4] = system: Pythium ultimum; assay: Pythium ultimum (Damping off), liquid culture growth inhibition in potato dextrose broth; format: cell-based; conditions: Globisporangium ultimum; 20 ppm; potato dextrose broth, 24° C.; inhibition of growth determined photometrically after 48 hours; read-out: control of fungal infection, Pythium ultimum
[5] = system: Plasmopara viticola; assay: Plasmopara viticola (downy mildew of grapevine), grapevine leaf disk assay, preventive; format: in vivo; conditions: foliar, 168 h, 200 ppm, grapevine leaf disks, assessed seven days after inoculation, read-out: control of fungal infection, Plasmopara viticola
[6] = system: Pyricularia oryzae; assay: whole plant or invertebrate; format: in vivo; conditions: foliar, 96 h, read-out: control of fungal infection, Pyricularia oryzae
[7] = system: Septoria nodorum; assay: Septoria nodorum (wheat glume blotch), wheat leaf segment assay, preventive; format: in vivo; conditions: Parastagonospora nodorum, foliar, 96 h; 200 ppm; wheat leaf segments; assessed four days after inoculation; read-out: control of fungal infection, Septoria nodorum
[8] = system: Phytophthora infestans; assay: whole plant or invertebrate; format: in vivo; conditions: in Solanum lycopersicum, foliar, 96 h, read-out: control of fungal infection, Phytophthora infestans
[9] = system: Fusarium culmorum; assay: Fusarium culmorum (root rot), liquid culture growth inhibition in nutrient broth; format: cell-based; conditions: PDB broth, 24 C, inhibition of growth determined photometrically after 48 hrs, read-out: control of fungal infection, Fusarium culmorum
Procedure, shortened: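 Fusarium culmorum conidia from cryogenic storage were mixed into potato dextrose broth and added to compound pre-dispensed from DMSO (diluted in 0.025% Tween20). Incubated at 24 C in the dark; growth inhibition read photometrically after 48 hrs.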

[10] = system: Botrytis cinerea; assay: Botrytis cinerea (grey mould), bean leaf disk assay, preventive; format: in vivo; conditions: foliar, 96 h, 200 ppm, bean leaf disks, assessed four days after inoculation, read-out: control of fungal infection, Botrytis cinerea

Row | Compound | pest or weed control at 200 ppm [1] [%] | inhibition of growth at 200 ppm [2] [%] | pest or weed control at 200 ppm [3] [%] | inhibition of growth at 20 ppm [4] [%] | pest or weed control at 200 ppm [5] [%] | pest or weed control at 200 ppm [6] [%] | pest or weed control at 200 ppm [7] [%] | pest or weed control at 200 ppm [8] [%] | inhibition of growth at 200 ppm [9] [%] | melting point [°C] | pest or weed control at 200 ppm [10] [%]
1 | C#Cc1cnc2ccc(OC(SC)C(=O)NC(C)(C)C=NOCC)cc2c1 (single isomer, unassigned) [Compound No. 119, N-(2-Ethoxyimino-1,1-dimethyl-ethyl)-2-(3-ethynyl-quinolin-6-yloxy)-2-methylsulfanyl-acetamide] | ≥ 60 | ≥ 60 | ≥ 60 | ≥ 60 | ≥ 60 | ≥ 60 | ≥ 60 | ≥ 60 |  |  | 
2 | CON=CC(C)(C)NC(=O)C(Oc1ccc2ncc(Br)cc2c1)SC (stereo not shown) [Compound No. 15, 2-(3-Bromo-quinolin-6-yloxy)-N-(2-methoxyimino-1,1-dimethyl-ethyl)-2-methylsulfanyl-acetamide] | ≥ 60 | ≥ 60 |  | ≥ 60 | ≥ 60 | ≥ 60 |  | ≥ 60 |  |  | 
3 | CCON=CC(C)(C)NC(=O)C(Oc1ccc2ncc(Br)cc2c1)SC (stereo not shown) [Compound No. 16, 2-(3-Bromo-quinolin-6-yloxy)-N-(2-ethoxyimino-1,1-dimethyl-ethyl)-2-methylsulfanyl-acetamide] | ≥ 60 |  |  | ≥ 60 |  | ≥ 60 |  | ≥ 60 |  |  | 
4 | CCON=CC(C)(C)NC(=O)C(Oc1cc(C)c2ncc(Br)cc2c1)SC (stereo not shown) [Compound No. 27, 2-(3-bromo-8-methyl-quinolin-6-yloxy)-N-(2-ethoxyimino-1,1-dimethyl-ethyl)-2-methylsulfanyl-acetamide] |  | ≥ 60 |  |  |  | ≥ 60 |  | ≥ 60 |  |  | 
5 | CSC(Oc1cc(C)c2ncc(Br)cc2c1)C(=O)NC(C)(C)C=NO (stereo not shown) [Compound No. 31, 2-(3-Bromo-8-methyl-quinolin-6-yloxy)-N-(2-hydroxyimino-1,1-dimethyl-ethyl)-2-methylsulfanyl-acetamide] | ≥ 60 |  |  | ≥ 60 | ≥ 60 | ≥ 60 |  | ≥ 60 | ≥ 60 |  | 
6 | C=CCON=CC(C)(C)NC(=O)C(Oc1cc(C)c2ncc(I)cc2c1)SC (stereo not shown) [Compound No. 45, N-(2-Allyloxyimino-1,1-dimethyl-ethyl)-2-(3-iodo-8-methyl-quinolin-6-yloxy)-2-methylsulfanyl-acetamide] | ≥ 60 | ≥ 60 |  |  | ≥ 60 | ≥ 60 | ≥ 60 | ≥ 60 |  |  | 
7 | CON=CC(C)(C#N)NC(=O)C(Oc1cc(C)c2ncc(I)cc2c1)SC (stereo not shown) [Compound No. 55, N-(1-Cyano-2-methoxyimino-1-methyl-ethyl)-2-(3-iodo-8-methyl-quinolin-6-yloxy)-2-methylsulfanyl-acetamide] | ≥ 60 |  | ≥ 60 | ≥ 60 | ≥ 60 |  | ≥ 60 | ≥ 60 | ≥ 60 | 166 to 168 | ≥ 60
8 | C#Cc1cnc2c(C)cc(OC(SC)C(=O)NC(C)(C#N)C=NOC)cc2c1 (stereo not shown) [Compound No. 56, N-(1-Cyano-2-methoxyimino-1-methyl-ethyl)-2-(3-ethynyl-8-methyl-quinolin-6-yloxy)-2-methylsulfanyl-acetamide] | ≥ 60 | ≥ 60 | ≥ 60 | ≥ 60 | ≥ 60 |  | ≥ 60 | ≥ 60 |  | 172 to 174 | ≥ 60
9 | CON=CC(C)(C#N)NC(=O)C(Oc1ccc2ncc(I)cc2c1)SC (stereo not shown) [Compound No. 57, N-(1-Cyano-2-methoxyimino-1-methyl-ethyl)-2-(3-iodo-quinolin-6-yloxy)-2-methylsulfanyl-acetamide] | ≥ 60 | ≥ 60 | ≥ 60 | ≥ 60 | ≥ 60 |  | ≥ 60 | ≥ 60 | ≥ 60 | 59 to 64 | 
10 | CON=CC(C)(C#N)NC(=O)C(Oc1ccc2ncc(C#C[Si](C)(C)C)cc2c1)SC (stereo not shown) [Compound No. 58, N-(1-Cyano-2-methoxyimino-1-methyl-ethyl)-2-methylsulfanyl-2-(3-trimethylsilanylethynyl-quinolin-6-yloxy)-acetamide] | ≥ 60 | ≥ 60 |  | ≥ 60 | ≥ 60 |  | ≥ 60 | ≥ 60 |  | 69 to 75 | ≥ 60
11 | CON=CC(C)(C)NC(=O)C(OC)Oc1cc(C)c2ncc(Br)cc2c1 (stereo not shown) [Compound No. 71, 2-(3-Bromo-8-methyl-quinolin-6-yloxy)-2-methoxy-N-(2-methoxyimino-1,1-dimethyl-ethyl)-acetamide] | ≥ 60 | ≥ 60 |  |  | ≥ 60 |  |  |  | ≥ 60 | 130 to 132 | ≥ 60
12 | CON=CC(C)(C)NC(=O)C(OC)Oc1ccc2ncc(I)cc2c1 (stereo not shown) [Compound No. 72, 2-(3-Iodo-quinolin-6-yloxy)-2-methoxy-N-(2-methoxyimino-1,1-dimethyl-ethyl)-acetamide] | ≥ 60 | ≥ 60 | ≥ 60 | ≥ 60 | ≥ 60 |  | ≥ 60 | ≥ 60 | ≥ 60 | 101 to 103 | ≥ 60
13 | CON=CC(C)(C)NC(=O)C(OC)Oc1cc(C)c2ncc(I)cc2c1 (stereo not shown) [Compound No. 73, 2-(3-Iodo-8-methyl-quinolin-6-yloxy)-2-methoxy-N-(2-methoxyimino-1,1-dimethyl-ethyl)-acetamide] | ≥ 60 | ≥ 60 | ≥ 60 | ≥ 60 | ≥ 60 |  | ≥ 60 |  | ≥ 60 | 126 to 128 | ≥ 60
14 | C#Cc1cnc2c(C)cc(OC(OC)C(=O)NC(C)(C)C=NOC)cc2c1 (stereo not shown) [Compound No. 77, 2-(3-Ethynyl-8-methyl-quinolin-6-yloxy)-2-methoxy-N-(2-methoxyimino-1,1-dimethyl-ethyl)-acetamide] | ≥ 60 | ≥ 60 | ≥ 60 | ≥ 60 | ≥ 60 |  | ≥ 60 | ≥ 60 | ≥ 60 | 138 to 140 | 
15 | C#Cc1cnc2c(Cl)cc(OC(SC)C(=O)NC(C)(C)C=NOCC)cc2c1 (stereo not shown) [Compound No. 116, 2-(8-Chloro-3-ethynyl-quinolin-6-yloxy)-N-(2-ethoxyimino-1,1-dimethyl-ethyl)-2-methylsulfanyl-acetamide] |  | ≥ 60 |  | ≥ 60 | ≥ 60 | ≥ 60 | ≥ 60 | ≥ 60 |  |  | 
16 | C#Cc1cnc2c(Cl)cc(OC(SC)C(=O)NC(C)(C)C=NOCC=C)cc2c1 (stereo not shown) [Compound No. 117, N-(2-Allyloxyimino-1,1-dimethyl-ethyl)-2-(8-chloro-3-ethynyl-quinolin-6-yloxy)-2-methylsulfanyl-acetamide] | ≥ 60 | ≥ 60 | ≥ 60 | ≥ 60 | ≥ 60 | ≥ 60 | ≥ 60 | ≥ 60 |  |  | 
17 | C#Cc1cnc2ccc(OC(SC)C(=O)NC(C)(C)C=NOCC)cc2c1 (stereo not shown) [Compound No. 118, N-(2-Ethoxyimino-1,1-dimethyl-ethyl)-2-(3-ethynyl-quinolin-6-yloxy)-2-methylsulfanyl-acetamide] | ≥ 60 | ≥ 60 | ≥ 60 | ≥ 60 | ≥ 60 | ≥ 60 | ≥ 60 | ≥ 60 |  |  | 
